In paper PMC13130965, “An Integrated Approach Combining Regulatory Tests in tg(cyp19a1b:GFP) Zebrafish Embryos to Assess Toxicity, Developmental Effects, and Estrogenic Activity of Chemicals: A Case Study with Bisphenol A Substitutes” (Environmental Science & Technology, 2026):
≈ marks a conversion by molar mass, not a printed value. Where two headings read alike, the source gives them in different places.

Experiments:
[1] = Refined Fish Embryo Acute Toxicity test (FET, OECD TG 236): mortality; format: in vivo, zebrafish (Danio rerio); details: tg(cyp19a1b:GFP), zebrafish, in vivo, other: waterborne exposure of embryos in test solution, LC50 (96h) experimental (FET test), nominal, brackets 95% CI
Method: (§1) Exposures were carried out in presaturated 24-well plates containing one embryo per well in 2 mL of test solution. The exposure was performed under semistatic conditions, with daily renewal of the test solution. The concentration ranges tested, along with a control with the same percentage of solvent alone, are recapitulated in Table S1. All exposure concentrations are reported as nominal. During the time course of the refined FET tests, embryos were observed after 8 h (coagulation), 24 h (lack of somite formation and nondetachment of the tail), and 48, 72, and 96 h of exposure (nondetection of the heartbeat). […] Moreover, hatching rate and nonlethal developmental effects (i.e., yolk deformity, growth retardation, spontaneous movement, edema, blood tail circulation, heart rate, pigmentation, head and tail/spinal malformations, and hemorrhage) were monitored daily. Tail/spinal malformations included lordosis, kyphosis, scoliosis, and reduced tail length.
(§2) This analysis considered all nonlethal developmental end points monitored in the refined FET assay (see above), except effects on hatching, pigmentation, spontaneous movement, and blood circulation. A teratogenic index (TI) was then calculated as the ratio LC50/EC50.
(§3) Baseline toxicity and experimental FET LC50 values were used to calculate toxic ratios (TR = predicted baseline toxicity LC50/experimental FET LC50). Compounds with TR < 10 were considered as baseline toxicants.

[2] = test system: tg(cyp19a1b:GFP) zebrafish embryos; assay: Refined FET: developmental effects / malformations; format: in vivo, zebrafish (Danio rerio); details: nominal; for EC50: Danio rerio, end of 96 h exposure, read-out: EC50 malformations (cumulative sublethal end points); for LOEC deformity of yolk: at least 10% of embryos affected
Method: as §1, §2

[3] = test system: cyp19a1b:GFP (brain aromatase) in tg(cyp19a1b:GFP) zebrafish embryos; assay: EASZY assay (OECD TG 250): GFP induction; format: in vivo, zebrafish (Danio rerio); details: Danio rerio, 96 h, 96 h; for EC50: read-out: EASZY relative EC50, nominal
Method: The tests were conducted according to OECD TG 250. Newly fertilized cyp19a1b-GFP eggs were transferred to glass crystallizing dishes and exposed for 96 h in a humidified climate chamber (27 ± 2 °C) under semistatic conditions with a total renewal of the test solutions each day. Each condition consisted of three crystallizing dishes, each containing 7 embryos and 15 mL of test medium. Embryos were exposed to a range of nonlethal concentrations of chemicals as determined previously based on the refined FET assays. The tested concentration ranges of bisphenols, along with a control with the same percentage of solvent alone, are summarized in Table S2. All exposure concentrations are reported as nominal. At the end of exposure, transgenic zebrafish embryos were collected for fluorescence imaging to quantify GFP intensity. At the end of the experiments, all living zebrafish embryos were euthanized as described above. […] ICI was added together with bisphenols from 0 to 4 dpf (days post fertilization). […] In all coexposure experiments, the final DMSO concentration was 0.02% (v/v).
For fluorescence imaging, GFP fold induction was expressed as mean ± SEM, and values were compared to the DMSO control using one-way ANOVA followed by Dunnett’s posthoc test. […]

[4] = test system: zfERs / cyp19a1b:GFP in tg(cyp19a1b:GFP) zebrafish embryos; assay: EASZY coexposure with ER antagonist ICI 182,780; format: in vivo, zebrafish (Danio rerio); details: also with 48 h ICI pre-exposure
Method: The tests were conducted according to OECD TG 250. Newly fertilized cyp19a1b-GFP eggs were transferred to glass crystallizing dishes and exposed for 96 h in a humidified climate chamber (27 ± 2 °C) under semistatic conditions with a total renewal of the test solutions each day. Each condition consisted of three crystallizing dishes, each containing 7 embryos and 15 mL of test medium. Embryos were exposed to a range of nonlethal concentrations of chemicals as determined previously based on the refined FET assays. The tested concentration ranges of bisphenols, along with a control with the same percentage of solvent alone, are summarized in Table S2. All exposure concentrations are reported as nominal. At the end of exposure, transgenic zebrafish embryos were collected for fluorescence imaging to quantify GFP intensity. At the end of the experiments, all living zebrafish embryos were euthanized as described above. For coexposure experiments, embryos were exposed to bisphenols in the presence of 1 μM of the ER antagonist ICI 182,780 (ICI). ICI was added together with bisphenols from 0 to 4 dpf (days post fertilization). […] In all coexposure experiments, the final DMSO concentration was 0.02% (v/v).

zebrafish ERβ2 (zfERβ2) = zebrafish ERβ2 (zfERβ2) (Danio rerio, UniProt Q7ZU32); assay: ZELH-zfERβ2 luciferase reporter gene assay; format: cell-based; details: read-out: maximal efficacy
Method: The ZELH-zfERs reporter cell line was previously established after a two-step stable transfection of the zebrafish hepatic cell line ZFL with the luciferase gene under the control of ERE (yielding the ZELH cell line that expresses no functional ER) and the zebrafish ER subtype β2 (yielding the ZELH-zfERβ2 cell line). Cells were cultured, exposed to chemicals for 72 h, and measured for luciferase activity exactly as previously described. , For each chemical, serial dilutions were prepared in DMSO and tested in three independent experiments. The final DMSO concentration in the culture medium was always 0.1% v/v. All tested concentrations refer to nominal concentrations.

[5] = cited from earlier work
hERβ [6] = test system: hERβ; parameters: method as in Grimaldi et al.; details: HELN-hERβ; ref Grimaldi et al.; cited from earlier work
[7] = test system: tg(cyp19a1b:GFP) zebrafish embryos; assay: Refined Fish Embryo Acute Toxicity test (FET, OECD TG 236): mortality; format: in vivo, zebrafish (Danio rerio); details: nominal, brackets 95% CI
Method: as §1, §2, §3

Zebrafish embryos = details: cited from earlier work
Adult Zebrafish = details: ref Ren et al. (2017); cited from earlier work
hERβ [8] = test system: hERβ; parameters: method as in Pelch et al.; details: HepG2-hERβ; ref Pelch et al.; cited from earlier work
[9] = 120h-exposure, ref Qiu et al. (2021)
[10] = zebrafish embryos, ref Ren et al. (2017)

Sequence of zebrafish ERβ2 (zfERβ2) (Q7ZU32 1-553): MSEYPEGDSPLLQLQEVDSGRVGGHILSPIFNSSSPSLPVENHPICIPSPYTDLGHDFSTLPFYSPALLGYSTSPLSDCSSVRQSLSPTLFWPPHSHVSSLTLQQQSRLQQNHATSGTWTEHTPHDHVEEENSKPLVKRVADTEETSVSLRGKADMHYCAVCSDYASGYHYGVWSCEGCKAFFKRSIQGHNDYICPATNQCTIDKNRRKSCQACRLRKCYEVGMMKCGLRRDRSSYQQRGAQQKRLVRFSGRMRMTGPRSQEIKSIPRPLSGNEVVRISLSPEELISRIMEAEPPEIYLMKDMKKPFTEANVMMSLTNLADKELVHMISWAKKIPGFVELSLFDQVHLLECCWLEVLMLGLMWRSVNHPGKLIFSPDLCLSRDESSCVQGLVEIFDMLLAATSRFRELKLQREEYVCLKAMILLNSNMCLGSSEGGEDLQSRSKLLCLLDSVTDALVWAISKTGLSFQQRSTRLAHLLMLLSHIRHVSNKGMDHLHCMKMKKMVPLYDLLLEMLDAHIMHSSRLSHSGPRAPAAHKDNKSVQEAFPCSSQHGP

Oc1ccc(C(=C(Cl)Cl)c2ccc(O)cc2)cc1 [BPC-Cl, 4-[2,2-dichloro-1-(4-hydroxyphenyl)ethenyl]phenol]
LC50 at 96 h [1]: 4.18 µg/mL (≈ 14.9 µM)
EC50 [2]: 1.28 µg/mL (≈ 4.55 µM)
LOEC edema [2]: 0.99 mg/L
LOEC heart rate disruption [2]: 8.89 mg/L
LOEC hemorrhage [2]: 2.96 mg/L
LOEC no blood tail circulation [2]: 8.89 mg/L
LOEC no spontaneous movement [2]: 2.96 mg/L
LOEC no/Less pigmentation [2]: 8.89 mg/L
LOEC tail/spinal malformations [2]: 8.89 mg/L
LOEC deformity of yolk [2]: 0.99 mg/L
EC50 [3]: 0.015 µg/mL (≈ 0.0534 µM)
effect of ICI 1 μM on bisphenol-induced GFP [4]: unable to block
Emax (zebrafish ERβ2 (zfERβ2)): 61%
Log Kow ([5]; ref ChemSpider): 4.25
EC50 (hERβ [6]): 46 nM
maximal efficacy (hERβ [6]): 35%

Oc1ccc(Cc2ccc(O)cc2)cc1 [BPF, 4-[(4-hydroxyphenyl)methyl]phenol]
LC50 at 96 h [1]: 35 µg/mL (≈ 175 µM)
LC50 (96h) experimental (FET test) [7]: 35.07 [33.99;35.07] mg/L
EC50 [2]: 17.2 µg/mL (≈ 85.9 µM)
LOEC edema [2]: 15 mg/L
LOEC head malformations [2]: 7.5 mg/L
LOEC heart rate disruption [2]: 60 mg/L
LOEC hemorrhage [2]: 7.5 mg/L
LOEC no blood tail circulation [2]: 60 mg/L
LOEC no spontaneous movement [2]: 60 mg/L
LOEC tail/spinal malformations [2]: 30 mg/L
LOEC deformity of yolk [2]: 15 mg/L
EC50 [3]: 0.407 µg/mL (≈ 2.03 µM)
Emax (zebrafish ERβ2 (zfERβ2)): 71%
Log Kow ([5]; ref Adamovsky et al.): 2.91
EC50 (hERβ [6]): 952 nM
maximal efficacy (hERβ [6]): 100%
Hatching success EC50(72h) (Zebrafish embryos; 4-days exposure, ref Moreman et al. (2017)): 14 (0.41) mg/L
LOEC (body length, GnRH3 neurons, reproductive neuroendocrine-related genes and hormones) (Zebrafish embryos; [9]): 100 µg/L
NOEC (body length, GnRH3 neurons, reproductive neuroendocrine-related genes and hormones) (Zebrafish embryos; [9]): 1 µg/L
NOEC (developmental toxicity) (Zebrafish embryos; Wildtype (AB/TL), 1-6 dpf static + 6-9 dpf semistatic, ref Catron et al. (2018; 2019)): 15.3 µM
LC50(96h) (Zebrafish embryos; Wildtype AB, 120h-exposure, ref Yang et al. (2017)): 10.030 µg/mL (≈ 50.1 µM)
mortality (Zebrafish embryos; at 20 mg/L, ref Tišler et al. (2016)): 20%
LC50 (Zebrafish embryos; read-out: LC50(96h), Wildtype AB, 96h-exposure, ref Arrokhman et al. (2023)): 120000 nM
Edema EC50(48h) (Zebrafish embryos; ref Tišler et al. (2016)): 10.7 (9.4-12.2) mg/L
Hatching inhibition EC50(72h) (Zebrafish embryos; ref Tišler et al. (2016)): 6.8 (5.8-8.5) mg/L
Pigmentation EC50(48h) (Zebrafish embryos; ref Tišler et al. (2016)): 1.1 (0.92-1.3) mg/L
LC50 (96h) literature (Zebrafish embryos; zebrafish embryos, 95% CI, ref Mu et al.): 19.6 [18.47–20.67] mg/L
LC50 (96h) literature (Zebrafish embryos; zebrafish embryos, parentheses SEM, ref Moreman et al.): 32 (0.55) mg/L
LC50 (96h) literature (Zebrafish embryos; zebrafish embryos, ref Arrokhman et al.): 24 mg/L (≈ 120 µM)
LC50 (96h) literature (Zebrafish embryos; zebrafish embryos, ref Gao et al.): 24.5 mg/L (≈ 122 µM)
LC50 (96h) literature (Zebrafish embryos; zebrafish embryos, ref Gu et al.): 7.40 mg/L (≈ 37 µM)
Body length LOEC (Zebrafish embryos; [10]): 8 mg/L
Body length NOEC (Zebrafish embryos; [10]): 6 mg/L
LC50(24h) (Zebrafish embryos; [10]): 9.13 µg/mL (≈ 45.6 µM)
LC50(48h) (Zebrafish embryos; [10]): 8.93 µg/mL (≈ 44.6 µM)
LC50(72h) (Zebrafish embryos; [10]): 8.56 µg/mL (≈ 42.7 µM)
LC50 (96h) literature (Zebrafish embryos; zebrafish embryos, ref Ren et al.): 7.40 mg/L (≈ 37 µM)
LC50(24h) (Adult Zebrafish): 10.10 µg/mL (≈ 50.4 µM)
LC50(48h) (Adult Zebrafish): 9.86 µg/mL (≈ 49.2 µM)
LC50(72h) (Adult Zebrafish): 9.51 µg/mL (≈ 47.5 µM)
LC50(96h) (Adult Zebrafish): 9.51 µg/mL (≈ 47.5 µM)

C=CCOc1ccc(S(=O)(=O)c2ccc(O)cc2)cc1 [BPS-MAE, 4-(4-prop-2-enoxyphenyl)sulfonylphenol]
LC50 at 96 h [1]: 20.1 µg/mL (≈ 69.1 µM)
EC50 [2]: 6.84 µg/mL (≈ 23.6 µM)
LOEC edema [2]: 33.3 mg/L
LOEC heart rate disruption [2]: 33.3 mg/L
LOEC no blood tail circulation [2]: 33.3 mg/L
LOEC no spontaneous movement [2]: 33.3 mg/L
LOEC no/Less pigmentation [2]: 33.3 mg/L
LOEC tail/spinal malformations [2]: 33.3 mg/L
minimal effective concentration ([3]; read-out: EASZY LOEC (GFP induction), nominal): 0.625 µg/mL
EC50 [3]: 0.327 µg/mL (≈ 1.13 µM)
effect of ICI 1 μM on bisphenol-induced GFP [4]: unable to block
Log Kow ([5]; ref ChemSpider): 3.13
maximal efficacy (hERβ [8]): 6%
